Assay results from patent publication US7335665B2, “Spirocyclic piperidines as MCH1 antagonists and uses thereof” (H - Lundbeck A/S, priority 2003, dated 2008).
Where two headings read alike, the source gives them in different places.

Molecular target: T1, rat MCH1 receptor (Rattus norvegicus, UniProt P97639)
T1 construct: expressed in transfected cells; host or cells: Human embryonic kidney Peak rapid 293 cells (Peakr293), transient, calcium phosphate; membranes
Assay: Radioligand binding assay at cloned rat MCH1 receptor ([3H]Compound A displacement)
Details: cloned rat MCH1, membranes of transfected Peakr293 cells, 0.08 nM [3H]Compound A, 25° C., 90 minutes
Protocol: For binding assays, pellets of transfected cells are suspended in ice-cold buffer (20 mM Tris.HCl, 5 mM EDTA, pH 7.4) and homogenized by sonication for 7 sec. The cell lysates are centrifuged at 200×g for 5 min at 4° C. The supernatants are then centrifuged at 40,000×g for 20 min at 4° C. The resulting pellets are washed once in the homogenization buffer and suspended in binding buffer (see methods for radioligand binding). Protein concentrations are determined by the method of Bradford (1976) using bovine serum albumin as the standard. Binding assays are usually performed immediately, however it is possible to prepare membranes in batch and store frozen in liquid nitrogen for future use.
Radioligand binding assays for the rat MCH1 receptor were carried out using plasmid pcDNA3.1-rMCH1-f (ATCC Patent Deposit Designation No. PTA-3505). Plasmid pcDNA3.1-rMCH1-f comprises the regulatory elements necessary for expression of DNA in a mammalian cell operatively linked to DNA encoding the rat MCH1 receptor so as to permit expression thereof. Plasmid pcDNA3.1-rMCH1-f was deposited on Jul. 5, 2001, with the American Type Culture Collection (ATCC), 12301 Parklawn Drive, Rockville, Md. 20852, U.S.A. under the provisions of the Budapest Treaty for the International Recognition of the Deposit of Microorganisms for the Purposes of Patent Procedure and was accorded ATCC Patent Deposit Designation No. PTA-3505.
Human embryonic kidney Peak rapid 293 cells (Peakr293 cells) were transiently transfected with DNA encoding the MCH1 receptor utilizing the calcium phosphate method and cell membranes were prepared as described above. Binding experiments with membranes from Peakr293 cells transfected with the rat MCH1 receptor were performed with 0.08 nM [^3H]Compound A (custom labeled by Amersham) (the synthesis of Compound A is described in detail below) using an incubation buffer consisting of 50 mM Tris pH 7.4, 10 mM MgCl2, 0.16 mM PMSF, 1 mM 1,10 phenantroline and 0.2% BSA. Binding was performed at 25° C. for 90 minutes. Incubations were terminated by rapid vacuum filtration over GF/C glass fiber filters, presoaked in 5% PEI using […] Tris pH 7.4 as wash buffer. In all experiments, nonspecific binding is defined using […] Compound A.
The compounds described above were assayed using cloned rat MCH1.

T1 sequence (P97639 whole entry): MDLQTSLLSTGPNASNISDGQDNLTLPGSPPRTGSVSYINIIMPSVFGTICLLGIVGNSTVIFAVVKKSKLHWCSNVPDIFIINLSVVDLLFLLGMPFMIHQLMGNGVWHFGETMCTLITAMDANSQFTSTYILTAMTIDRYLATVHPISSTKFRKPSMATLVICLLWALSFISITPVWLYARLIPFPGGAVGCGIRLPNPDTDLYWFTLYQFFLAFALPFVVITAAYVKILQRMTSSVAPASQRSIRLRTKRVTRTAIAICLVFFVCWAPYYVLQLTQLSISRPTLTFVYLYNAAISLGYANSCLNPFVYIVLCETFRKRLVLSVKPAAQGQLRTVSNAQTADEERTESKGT

Row | Structure (SMILES) | Ki (KI) [nM] | Ki (read-out: KI) [nM]
1 | O=C1c2ccccc2C(=O)N1CCCCN1CCC2(C=Cc3ccccc32)CC1 [Example 1, 2-(4-(-(SPIRO[INDENE-1,4′-PIPERIDINE]-10-YL)BUTYL)BENZO[C]AZOLINE-1,3-DIONE] | 807 | 
2 | O=C(NCCCCCCN1CCC2(CCc3ccccc32)CC1)c1ccc(-c2ccccc2)cc1 [Example 2, (4-PHENYL)PHENYL)-N-(6-(SPIRO[INDANE-1,4′-PIPERIDINE]-10-YL)HEXYL)CARBOXAMIDE] |  | 970
3 | O=C(NCCCCCN1CCC2(CCc3ccccc32)CC1)C(c1ccccc1)c1ccccc1 [Example 3, 2,2-DIPHENYL-N-(5-(SPIRO[INDANE-1,4′-PIPERIDINE]-10-YL)PENTYL)ACETAMIDE] | 378 | 
4 | O=C(NCCCCN1CCC2(CCc3ccccc32)CC1)C(c1ccccc1)c1ccccc1 [Example 4, 2,2-DIPHENYL-N-(4-(SPIRO[INDANE-1,4′-PIPERIDINE]-10-YL)BUTYL)ACETAMIDE] |  | 214
5 | O=C(NCCCCCCN1CCC2(CCc3ccccc32)CC1)C(c1ccccc1)c1ccccc1 [Example 5, 2,2-DIPHENYL-N-(6-(SPIRO[INDANE-1,4′-PIPERIDINE]-10-Y)LHEXYL)ACETAMIDE] | 732 | 
6 | O=C(NCCCN1CCC2(CCc3ccccc32)CC1)C(c1ccccc1)c1ccccc1 [Example 6, 2,2-DIPHENYL-N-(3-(SPIRO[INDANE-1,4′-PIPERIDINE]-10-YL)PROPYL)ACETAMIDE] |  | 33.8
7 | O=C(NCCCCN1CCC2(CCc3ccccc32)CC1)c1cc(Cl)cc(Cl)c1 [Example 7, (3,5-DICHLOROPHENYL)-N-[(4-(SPIRO[INDANE-1,4′-PIPERIDINE]-10-YL)BUTYL)AMINO]CARBOXAMIDE] |  | 271
8 | O=C(NCCCN1CCC2(CCc3ccccc32)CC1)c1cc(Cl)cc(Cl)c1 [Example 8, (3,5-DICHLOROPHENYL)-N-(3-(SPIRO[INDANE-1,4′-PIPERIDINE]-10-YL)PROPYL)CARBOXAMIDE] |  | 914
9 | O=C(Cc1ccc(F)cc1)NCCCCN1CCC2(CCc3ccccc32)CC1 [Example 9, 2-(4-FLUOROPHENYL)-N-(4-(SPIRO[INDANE-1,4′-PIPERIDINE]-10-YL)BUTYL)ACETAMIDE] | 691 | 
10 | CCCc1nn(-c2ccc(Cl)cc2)cc1C(=O)NCCCCCCN1CCC2(CCc3ccccc32)CC1 [Example 10, [1-(4-CHLOROPHENYL)-3-PROPYL)PYRAZOL-4-YL]-N-(6-(SPIRO[INDANE-1,4′-PIPERIDINE]-10-YL)HEXYL)CARBOXAMIDE] | 764 | 
11 | Cc1onc(-c2c(F)cccc2Cl)c1C(=O)NCCCCCCN1CCC2(CCc3ccccc32)CC1 [Example 12, [3-(2-CHLORO-6-FLUOROPHENYL)-5-METHYLISOXAZOL-4-YL]-N-(6-(SPIRO[INDANE-1,4′-PIPERIDINE]-10-YL)HEXYL)CARBOXAMIDE] |  | 661
12 | O=C(NCCCCN1CCC2(CCc3ccccc32)CC1)c1cc(F)cc(F)c1 [Example 13, (3,5-DIFLUOROPHENYL)-N-(4-(SPIRO[INDANE-1,4′-PIPERIDINE]-10-YL)BUTYL)CARBOXAMIDE] |  | 270
13 | O=C(NCCCCCCN1CCC2(CCc3ccccc32)CC1)c1cc(F)cc(F)c1 [Example 14] | 843 | 
14 | O=C(NCCCCN1CCC2(CCc3ccccc32)CC1)c1ccc(Oc2cc(Cl)cc(Cl)c2)o1 [Example 15, [5-(3,5-dichlorophenoxy)(2-furyl)]-N-(4-(SPIRO[indane-1,4′-piperidine]-10-YL)BUTYL)carboxamide] | 434 | 
15 | O=C(NCCCCCCN1CCC2(CCc3ccccc32)CC1)c1ccc(Oc2cc(Cl)cc(Cl)c2)o1 [Example 16, [5-(3,5-DICHLOROPHENOXY)(2-FURYL)]-N-(6-(SPIRO[INDANE-1,4′-PIPERIDINE]-10-YL)HEXYL)CARBOXAMIDE] | 450 | 
16 | O=C(NCCCN1CCC2(CCc3ccccc32)CC1)c1ccc(Oc2cc(Cl)cc(Cl)c2)o1 [Example 17, [5-(3,5-DICHLOROPHENOXY)(2-FURYL)]-N-(3-(SPIRO[INDANE-1,4′-PIPERIDINE]-10-YL)PROPYL)CARBOXAMIDE] | 935 | 
17 | O=C(NCCCCN1CCC2(CCc3ccccc32)CC1)c1cccc(Cl)c1 [Example 18, (3-CHLOROPHENYL)-N-(4-(SPIRO[INDANE-1,4′-PIPERIDINE]-10-YL)BUTYL)CARBOXAMIDE] |  | 342

Row | Structure (SMILES) | Ki (KI) [nM] | Ki (read-out: KI) [nM]
18 | O=C(NCCCCCCN1CCC2(CCc3ccccc32)CC1)c1ccc(F)c(F)c1 [Example 19, (3,4-DIFLUOROPHENYL)-N-(6-(SPIRO[INDANE-1,4′-PIPERIDINE]-10-YL)HEXYL)CARBOXAMIDE] | 412 | 
19 | CC(C)(C)c1cc(C(=O)NCCCCCCN2CCC3(CCc4ccccc43)CC2)n(Cc2ccccc2)n1 [Example 20, [3-(TERT-BUTYL)-1-BENZYL)PYRAZOL-5-YL]-N-(6-(SPIRO[INDANE-1,4′-PIPERIDINE]-10-YL)HEXYL)CARBOXAMIDE] | 510 | 
20 | O=S(=O)(NCCCCCN1CCC2(CCc3ccccc32)CC1)c1cccc(C(F)(F)F)c1 [Example 21, (5-(SPIRO[INDANE-1,4′-PIPERIDINE]-10-YL)PENTYL){[3-(TRIFLUORO-METHYL)PHENYL]SULFONYL}AMINE] |  | 992
21 | S=C(NCCCCCN1CCC2(CCc3ccccc32)CC1)Nc1cccc2ccccc12 [Example 22, (NAPHTHYLAMINO)[(5-(SPIRO[INDANE-1,4′-PIPERIDINE]-10-YL)PENTYL)AMINO]METHANE-1-THIONE] | 517 | 
22 | S=C(NCCCCN1CCC2(CCc3ccccc32)CC1)Nc1cccc2ccccc12 [Example 23, (NAPHTHYLAMINO)[(4-(SPIRO[INDANE-1,4′-PIPERIDINE]-10-YL-BUTYL)AMINO]METHANE-1-THIONE] | 818 | 
23 | S=C(NCCCCCCN1CCC2(CCc3ccccc32)CC1)Nc1cccc2ccccc12 [Example 24, (NAPHTHYLAMINO)[(6-SPIRO[INDANE-1,4′-PIPERIDINE]-10-YLHEXYL)AMINO]METHANE-1-THIONE] | 668 | 
24 | O=C(NCCCCCN1CCC2(CCc3ccccc32)CC1)Nc1cc(Cl)cc(Cl)c1 [Example 25, N-(3,5-DICHLOROPHENYL)[(5-(SPIRO[INDANE-1,4′-PIPERIDINE]-10-YL)PENTYL)AMINO]CARBOXAMIDE] |  | 542
25 | O=C(NCCCCN1CCC2(CCc3ccccc32)CC1)Nc1cc(Cl)cc(Cl)c1 [Example 26, N-(3,5-DICHLOROPHENYL)[(4-SPIRO[INDANE-1,4′-PIPERIDINE]-10-YLBUTYL)AMINO]CARBOXAMIDE] | 512 | 
26 | O=C(NCCCCCN1CCC2(CCc3ccccc32)CC1)Nc1ccc(-c2ccccc2)cc1 [Example 27, N-(4-PHENYL)PHENYL)[(5-(SPIRO[INDANE-1,4′-PIPERIDINE]-10-YL)PENTYL)AMINO]CARBOXAMIDE] |  | 662
27 | O=C(NCCCCN1CCC2(CCc3ccccc32)CC1)Nc1ccc(-c2ccccc2)cc1 [Example 28, N-(4-PHENYL)PHENYL)[(4-(SPIRO[INDANE-1,4′-PIPERIDINE]-10-YL)BUTYL)AMINO]CARBOXAMIDE] |  | 549
28 | O=C(NCCCCCCN1CCC2(CCc3ccccc32)CC1)c1ccc(-c2ccccc2)cc1 [Example 29, (4-PHENYL)PHENYL)-N-(6-(SPIRO[INDANE-1,4′-PIPERIDINE]-10-YL)HEXYL)CARBOXAMIDE] |  | 431
29 | O=C(NCCCCCN1CCC2(CCc3ccccc32)CC1)c1cccnc1Oc1ccc(Cl)cc1 [Example 31, [2-(4-CHLOROPHENOXY)(3-PYRIDYL)]-N-(5-(SPIRO[INDANE-1,4′-PIPERIDINE]-10-YL)PENTYL)CARBOXAMIDE] |  | 212
30 | O=C(NCCCCN1CCC2(CCc3ccccc32)CC1)c1cccnc1Oc1ccc(Cl)cc1 [Example 32, [2-(4-CHLOROPHENOXY)(3-PYRIDYL)]-N-(4-(SPIRO[INDANE-1,4′-PIPERIDINE]-10-YL)BUTYL)CARBOXAMIDE] |  | 388
31 | O=C(NCCCCCCN1CCC2(CCc3ccccc32)CC1)c1cccnc1Oc1ccc(Cl)cc1 [Example 33, [2-(4-CHLOROPHENOXY)(3-PYRIDYL)]-N-(6-(SPIRO[INDANE-1,4′-PIPERIDINE]-10-YL)HEXYL)CARBOXAMIDE] |  | 431
32 | O=C(NCCCCN1CCC2(CCc3ccccc32)CC1)c1sc2ccccc2c1Cl [Example 34, (3-CHLOROBENZO[B]THIOPHEN-2-YL)-N-(4-(SPIRO[INDANE-1,4′-PIPERIDINE]-10-YL)BUTYL)CARBOXAMIDE] | 883 | 
33 | Cc1onc(-c2ccccc2Cl)c1C(=O)NCCCCN1CCC2(CCc3ccccc32)CC1 [Example 35, [3-(2-CHLOROPHENYL)-5-METHYLISOXAZOL-4-YL]-N-(4-(SPIRO[INDANE-1,4′-PIPERIDINE]-10-YL)BUTYL)CARBOXAMIDE] |  | 825
34 | O=C(NCCCCCN1CCC2(C=Cc3ccccc32)CC1)c1sc2ccccc2c1Cl [Example 36, (3-CHLOROBENZO[B]THIOPHEN-2-YL)-N-(5-(SPIRO[INDENE-1,4′-PIPERIDINE]-10-YL)PENTYL)CARBOXAMIDE] |  | 736
